Laboratory results reported in patent US12122780B2, “Pyrimidinyl group-containing tricyclic compound serving as c-Met inhibitor” (JIANGSU AOSAIKANG PHARMACEUTICAL CO., LTD., priority 2019, dated 2024).
Where a name gives a salt, the structure may show the parent alone.

Columns and labels:
c-Met enzyme = c-Met enzyme (Homo sapiens (Human), UniProt P08581); experiment: c-Met enzyme activity inhibition (Promega c-Met Kinase Enzyme System, ADP-Glo); format: biochemical; settings: 10 μM ATP, 60 min, 30° C.
Description: To detect the inhibitory effect of the compounds on c-Met enzyme activity.
The c-Met Kinase Enzyme System was purchased from Promega. Envision multi-label analyzer (PerkinElmer).
The kinase buffer in the kit was used to dilute the enzyme, substrate, ATP and inhibitor.
The compound to be tested was diluted 5-fold to the eighth concentration with a discharge gun, i.e., from 50 μM to […], with a final DMSO concentration of 5%, and double duplicate wells experiment was set. 1 μL of each concentration gradient of the inhibitor, 2 μL of c-Met enzyme (4 ng), 2 μL of a mixture of the substrate and ATP (10 μM ATP, 0.2 μg/μL poly E4Y1) were added to the microplate, and the final concentration gradient of the compound of 10 μM was diluted to 0.13 nM. The reaction system was placed at 30° C. and the reaction was carried out for 60 minutes. When the reaction was completed, 5 μL of ADP-Glo reagent was added to each well and the reaction was carried out at 30° C. for another 40 minutes, when the reaction was completed, 10 μL of kinase detection reagent was added to each well, then the reaction was carried out at 30° C. for still another 30 minutes, chemiluminescence was read by the PerkinElmer Envision multi-label analyzer with an integration time of 0.5 seconds.
Using the equation (Sample-Min)/(Max-Min)*100% to convert the original data to the inhibition rate, the IC50 value can be obtained by curve fitting with four parameters (obtained by log(inhibitor) vs. response in GraphPad Prism—Variable slope mode).

EBC-1 cells = experiment: EBC-1 cell proliferation experiment (CellTiter-Glo); format: cell-based, human; settings: Homo sapiens, EBC-1, 72 h, 3 days
Description: MEM medium, fetal bovine serum, penicillin/streptomycin antibiotics were purchased from Wisent. EBC-1 cell line was purchased from Nanjing COBIO Bioscience Co., LTD. Envision multi-label analyzer (PerkinElmer).
EBC-1 cells were seeded in a white 96-well plate, […] cell suspension per well, which contained 3000 EBC-1 cells. The cell plate was placed in a carbon dioxide incubator for overnight culture.
The compound to be tested was diluted 5-fold to the eighth concentration with a discharge gun, i.e., from 2 mM to […], and double duplicate wells experiment was set. 78 μL of the medium was added to the middle plate, then 2 μL per well of gradient diluted compound was transferred to the corresponding position on the middle plate, then mixed well and 20 μL per well was transferred to the cell plate. The cell plate was cultured in a carbon dioxide incubator for 3 days. Another cell plate was prepared and the signal values were read on the day of dosing as […] to be used in the data analysis. 25 μL of Promega CellTiter-Glo was added to each well of this cell plate, and incubated at room temperature for 10 minutes to stabilize the luminescence signal. Readings were taken using a PerkinElmer Envision multi-label analyzer.
25 μL of Promega CellTiter-Glo reagent was added to each well of this cell plate, and incubated at room temperature for 10 minutes to stabilize the luminescence signal. Readings were taken using a PerkinElmer Envision multi-label analyzer.
Using the equation (Sample-Min)/(Max-Min)*100% to convert the original data to the inhibition rate, the IC50 value can be obtained by curve fitting with four parameters (obtained by “log(inhibitor) vs. response in GraphPad Prism—Variable slope mode).

Hs746T cells = experiment: Hs746T cell proliferation experiment (CellTiter-Glo); format: cell-based; settings: Homo sapiens, 96 h, 4 days
Description: DMEM medium was purchased from Gibco, and fetal bovine serum was purchased from Hyclone. Hs746T cell line was purchased from ATCC. Envision multi-label analyzer (PerkinElmer).
Hs746T cells were seeded in a 384-well plate, 50 μL of cell suspension per well, which contained 1500 Hs746T cells. The cell plate was placed in a carbon dioxide incubator for overnight culture.
The compounds to be tested were 3-fold diluted into 9 concentrations with Tecan, double-duplicate well experiment was set, and the final compound concentrations added to the 384-well cell plate were 1000 nM to 0.15 nM. The cell plate was cultured in a carbon dioxide incubator for 4 days.
After 4 days, 25 μL of Promega CellTiter-Glo reagent was added to each well of this cell plate, and incubated at room temperature for 10 minutes to stabilize the luminescence signal. Readings were taken using a PerkinElmer Envision multi-label analyzer.
The action curves of the compounds were automatically fitted using Xlfit software and the values of IC50 were calculated, High control was the values of DMSO-treated wells and Low control was the values of cell-free medium wells.

[1] = tested on: human lung cancer EBC-1 xenograft tumor; experiment: In vivo drug efficacy, human lung cancer EBC-1 xenograft tumor in nude mice; set-up: species or system BALB/c nude mice; settings: for Tumor volume: n = 6
Description: BALB/c nude mice, female, 6-8 weeks old, weighing about 18-20 grams, animals were raised in SPF-class animal rooms in IVC (independent air supply system, constant temperature and humidity) cages (3 per cage). All cages, bedding and water were disinfected before use. All animals had free access to standard certified commercial laboratory diets. A total of 36 mice purchased from Shanghai Lingchang Biotechnology Co., Ltd. were used for research. Each animal was inoculated with 0.1 mL (5×10^6 cells) of EBC-1 cells on the right back, when the average tumor volume reached 243 mm^3, the animals were randomly grouped and the administration was started. The test compound was orally administered daily, the dose of hydrochloride of compound 24 was 10 mg/kg, the two doses of hydrochloride of compound 25 were 10 mg/kg and 20 mg/kg, respectively, and the dose of hydrochloride of compound 29 was 10 mg/kg. The tumor diameter was measured with vernier calipers twice a week. The calculation formula of tumor volume was: V=0.5a×b^2, a and b represented the long diameter and short diameter of the tumor, respectively. The anti-tumor efficacy of the compound was evaluated by TGI (%) or the relative tumor proliferation rate T/C (%). Relative tumor proliferation rate T/C (%)=TRTV/CRTV×100% (TRTV: average RTV in the treatment group; CRTV: average RTV in the negative control group). The relative tumor volume (RTV) was calculated according to the results of tumor measurement, the calculation formula was RTV=Vt/V0, wherein V0 was the tumor volume measured at the time of the grouping administration (i.e. D0), Vt was the tumor volume at a certain measurement, and TRTV and CRTV were taken on the same day. TGI (%) reflected the tumor growth inhibition rate. TGI (%)=[(1−(average tumor volume of a certain treatment group after administration-average tumor volume of the treatment group at the beginning of administration))/(average tumor volume of the solvent control group after the administration-average tumor volume of the solvent control group at the beginning of the administration)]×100%. Statistical analysis was performed based on RTV data at the end of the experiment, and SPSS software was used for analysis.

Chain of c-Met enzyme (P08581 956-1390): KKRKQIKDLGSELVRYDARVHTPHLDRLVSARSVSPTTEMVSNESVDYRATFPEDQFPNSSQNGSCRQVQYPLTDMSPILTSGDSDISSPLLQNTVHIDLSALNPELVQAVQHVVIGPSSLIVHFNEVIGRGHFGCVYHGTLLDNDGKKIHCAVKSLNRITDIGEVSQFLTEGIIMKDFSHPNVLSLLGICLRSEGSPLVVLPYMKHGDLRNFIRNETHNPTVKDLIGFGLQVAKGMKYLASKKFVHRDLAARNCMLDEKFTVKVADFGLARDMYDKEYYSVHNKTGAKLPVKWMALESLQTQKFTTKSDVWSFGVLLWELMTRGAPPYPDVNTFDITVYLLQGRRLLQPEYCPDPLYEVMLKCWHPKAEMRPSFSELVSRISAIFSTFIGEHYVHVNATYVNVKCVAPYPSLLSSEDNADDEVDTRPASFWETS

Row | Structure (SMILES) | IC50 (c-Met enzyme) [nM] | IC50 (EBC-1 cells) [nM] | IC50 (Hs746T cells) [nM] | further results
1 | COC1(COc2cnc(-c3cccc(Cn4c(=O)ccn5c6cc(C#N)ccc6nc45)c3)nc2)CCN(C)CC1 [Hydrochloride of compound 36] | 7.38 | 6.13 | 2.7 | 
2 | CN1CCC(O)(COc2cnc(-c3cccc(Cn4c(=O)ccn5c6cc(C#N)ccc6nc45)c3)nc2)CC1 [Hydrochloride of compound 34] | 2.82 | 4.91 | 2.6 | 
3 | N#Cc1ccc2nc3n(Cc4cccc(-c5ncc(OCC6CCN(CCO)CC6)cn5)c4)c(=O)ccn3c2c1 [Hydrochloride of compound 30] | 7.48 | 7.09 | 2 | 
4 | CC(C)N1CCC(O)(COc2cnc(-c3cccc(Cn4c(=O)ccn5c6cc(C#N)ccc6nc45)c3)nc2)CC1 [Hydrochloride of compound 37] | 4.26 | 4.91 | 2.5 | 
5 | CCN1CCC(COc2cnc(-c3ccc(F)c(Cn4c(=O)ccn5c6cc(C#N)ccc6nc45)c3)nc2)CC1 [Hydrochloride of compound 29] | 6.31 | 10.3 |  | Tumor volume ([1]; 10 mg/kg oral daily (stopped after 15 days), day 18, mean ± standard error): 218 ± 50 mm^3; Tumor volume ([1]; 10 mg/kg oral daily (stopped after 15 days), day 21, mean ± standard error): 243 ± 56 mm^3; Tumor volume ([1]; 10 mg/kg oral daily (stopped after 15 days), day 25, mean ± standard error): 337 ± 83 mm^3; Tumor volume ([1]; 10 mg/kg oral daily (stopped after 15 days), day 25, mean ± standard error, listed as hydrochloride of compound 29): 337 mm^3; Tumor volume ([1]; 10 mg/kg oral daily (stopped after 15 days), day 27, mean ± standard error): 412 ± 100 mm^3; TGI (tumor growth inhibition rate) ([1]; 10 mg/kg oral daily, 25th day): 94.8%; TRTV/CRTV (relative tumor proliferation rate T/C) ([1]; 10 mg/kg oral daily, 25th day): 16.2%; Tumor volume ([1]; 10 mg/kg oral daily, day 0, mean ± standard error): 243 ± 17 mm^3; Tumor volume ([1]; 10 mg/kg oral daily, day 4, mean ± standard error): 299 ± 13 mm^3; Tumor volume ([1]; 10 mg/kg oral daily, day 7, mean ± standard error): 318 ± 21 mm^3; Tumor volume ([1]; 10 mg/kg oral daily, day 11, mean ± standard error): 294 ± 27 mm^3; Tumor volume ([1]; 10 mg/kg oral daily, day 14, mean ± standard error): 205 ± 37 mm^3

Now from value to compound, other results behind:

Row | IC50 (c-Met enzyme) [nM] | Structure (SMILES) | IC50 (EBC-1 cells) [nM] | IC50 (Hs746T cells) [nM] | further results
6 | 6.63 | COC1(COc2cnc(-c3cccc(Cn4c(=O)ccn5c6cc(C#N)ccc6nc45)c3)nc2)CCN(CCO)CC1 [Hydrochloride of compound 41] | 5.08 | 2.3 | 
7 | 7.65 | COC1(COc2cnc(-c3cccc(Cn4c(=O)ccn5c6cc(C#N)ccc6nc45)c3)nc2)CCN(C(C)C)CC1 [Hydrochloride of compound 38] | 8.51 | 3.2 | 
